Source: publication PMC11111955, “Safety and efficacy evaluation of halicin as an effective drug for inhibiting intestinal infections” (Frontiers in Pharmacology, 2024)
In brackets after ≈: the same amount, converted by molar mass. Entries after “also recorded” stand apart in the source; their conditions may differ. Where two headings read alike, the source gives them in different places.

How the values were obtained:
[1] = tested on: P. aeruginosa (ATCC 27853); assay: Minimum inhibitory concentration (MIC); format: cell-based, Pseudomonas aeruginosa
Description: (§1) The test strains were inoculated on the corresponding solid medium and incubated overnight at 37°C. A single colony was picked from the medium and inoculated into Luria Broth (LB), and then incubated overnight at 37°C with shaking at 220 rpm. The bacterial suspension was diluted to 0.5 McFarland turbidity with Mueller Hinton broth (MHB), and then dilute 100 times for later use. Halicin was added to the 96-well plate, and diluted it to concentrations of 128, 64, 32, 16, 8, 4, 2, 1, 0.5, 0.25, 0.125, and 0 μg/mL by gradient. The 96-well plate was incubated at 37°C for 16 h, followed by observing and recording the results. The MIC was determined as the concentration at which there was no visible colony growth was observed.

[2] = tested on: S. aureus (ATCC 29213); assay: Minimum inhibitory concentration (MIC); format: cell-based, Staphylococcus aureus
Description: as §1

[3] = tested on: B. subtilis (ATCC 66333); assay: Minimum inhibitory concentration (MIC); format: cell-based, Bacillus subtilis
Description: as §1

[4] = tested on: C. perfringens (ATCC 13124); format: cell-based, Clostridium perfringens
[5] = tested on: clinical isolates of E. coli strains; assay: MIC against clinical isolates; format: cell-based, Escherichia coli
[6] = tested on: clinical isolates of C. perfringens strains; format: cell-based, Clostridium perfringens
[7] = tested on: WP2uvApKM101; assay: Ames test; format: cell-based, Escherichia coli
Description: The experiments were performed in triplicate.

[8] = tested on: zebrafish embryos; assay: Zebrafish embryonic malformation study; format: in vivo; details: up to 4 μM; 24, 48 and 72 h after fertilization
Description: For embryonic malformation studies, groups of 20 zebrafish embryos each were treated with halicin. The concentrations of the drug were set at 4, 2, 1, and 0.5 μM, in accordance with established protocols for zebrafish embryo acute toxicity test. Observations were conducted at 24, 48, and 72 h after fertilization using a microscope. The embryonic assessment focused on six specific teratogenic endpoints: pericardial edema, yolk sac edema, cardiac malformations, morphological body shape deformities, tail deformities, and craniofacial anomalies, as well as otolith abnormalities. To minimize the impact of random variability, these experiments were performed in triplicate ([OECD, 1998]).

[9] = tested on: Clostridium perfringens Type A; format: in vivo, BALB/c mice; details: for survival of infected mice: 1 h after C. perfringens challenge
[10] = tested on: Mouse spermatozoa; details: for Abnormal ratio (%) / Number of sperm abnormality: male ICR mice, oral; for Number of sperm abnormality: of 5 × 1,000 sperms observed
[11] = tested on: Salmonella (CVCC 3377); assay: Growth kinetics curve; details: 1/2 × to 4 × MIC
[12] = tested on: ICR mice; assay: Acute oral toxicity test in ICR mice
[13] = tested on: S. aureus (ATCC 29213); assay: Multipassage resistance study (continuous induction); details: after 90 days of continuous exposure to 0.5 × MIC

Nc1nnc(Sc2ncc([N+](=O)[O-])s2)s1 [halicin]
MIC [1]: 64 µg/mL (≈ 245 µM) | MIC [2]: 8 µg/mL (≈ 30.6 µM) | MIC [3]: 128 µg/mL (≈ 490 µM) | MIC [4]: 8 µg/mL (≈ 30.6 µM) | MIC [5]: 8 µg/mL (≈ 30.6 µM) | MIC ([5]; clinical isolate S015, Escherichia coli 1505): 16 µg/mL (≈ 61.2 µM) | MIC ([5]; clinical isolate S016, Escherichia coli 2101): 16 µg/mL (≈ 61.2 µM) | MIC ([5]; clinical isolate S017, Escherichia coli 1104): 16 µg/mL (≈ 61.2 µM) | MIC ([5]; clinical isolate S018, Escherichia coli 1103): 16 µg/mL (≈ 61.2 µM) | MIC ([5]; clinical isolate S019, Escherichia coli 1102): 16 µg/mL (≈ 61.2 µM) | MIC ([5]; clinical isolate S020, Escherichia coli 1204): 16 µg/mL (≈ 61.2 µM) | MIC ([5]; clinical isolate S021, Escherichia coli 1508): 16 µg/mL (≈ 61.2 µM) | MIC ([5]; clinical isolate S022, Escherichia coli 1302): 16 µg/mL (≈ 61.2 µM) | MIC ([5]; clinical isolate S023, Escherichia coli 1301): 16 µg/mL (≈ 61.2 µM) | MIC ([5]; clinical isolate S024, Escherichia coli 1213): 16 µg/mL (≈ 61.2 µM) | MIC ([5]; clinical isolate S025, Escherichia coli 1111): 8 µg/mL (≈ 30.6 µM) | MIC ([5]; clinical isolate S026, Escherichia coli 1123): 8 µg/mL (≈ 30.6 µM) | MIC ([5]; clinical isolate S034, Escherichia coli 1115): 8 µg/mL (≈ 30.6 µM) | MIC ([5]; clinical isolate S035, Escherichia coli 1114): 8 µg/mL (≈ 30.6 µM) | MIC ([5]; clinical isolate S036, Escherichia coli 1113): 8 µg/mL (≈ 30.6 µM) | MIC ([5]; clinical isolate S037, Escherichia coli 1110): 8 µg/mL (≈ 30.6 µM) | MIC ([5]; clinical isolate S038, Escherichia coli 1108): 8 µg/mL (≈ 30.6 µM) | MIC ([5]; clinical isolate S039, Escherichia coli 1105): 8 µg/mL (≈ 30.6 µM) | MIC ([5]; clinical isolate S040, Escherichia coli 230202): 8 µg/mL (≈ 30.6 µM) | MIC ([5]; clinical isolate S041, Escherichia coli 230203): 8 µg/mL (≈ 30.6 µM) | MIC ([5]; clinical isolate S042, Escherichia coli 230210): 8 µg/mL (≈ 30.6 µM) | MIC ([5]; clinical isolate S043, Escherichia coli 0807): 32 µg/mL (≈ 122 µM) | MIC ([5]; clinical isolate S044, Escherichia coli 1122): 4 µg/mL (≈ 15.3 µM) | MIC ([5]; clinical isolate S045, Escherichia coli 0906): 4 µg/mL (≈ 15.3 µM) | MIC ([5]; clinical isolate S046, Escherichia coli 0813): 4 µg/mL (≈ 15.3 µM) | MIC ([5]; clinical isolate S047, Escherichia coli 230209): 4 µg/mL (≈ 15.3 µM) | MIC ([5]; clinical isolate S048, Escherichia coli 230211): 4 µg/mL (≈ 15.3 µM) | MIC ([6]; clinical isolate S049, Clostridium perfringens Cp001): 4 µg/mL (≈ 15.3 µM) | MIC ([6]; clinical isolate S050, Clostridium perfringens Cp002): 4 µg/mL (≈ 15.3 µM) | MIC ([6]; clinical isolate S051, Clostridium perfringens Cp003): 4 µg/mL (≈ 15.3 µM) | MIC ([6]; clinical isolate S052, Clostridium perfringens Cp004): 8 µg/mL (≈ 30.6 µM) | MIC ([6]; clinical isolate S053, Clostridium perfringens Cp005): 8 µg/mL (≈ 30.6 µM) | MIC ([6]; clinical isolate S054, Clostridium perfringens Cp006): 8 µg/mL (≈ 30.6 µM) | MIC ([6]; clinical isolate S055, Clostridium perfringens Cp007): 16 µg/mL (≈ 61.2 µM) | MIC ([6]; clinical isolate S056, Clostridium perfringens Cp008): 0.25 µg/mL (≈ 0.957 µM) | MIC ([6]; clinical isolate S057, Clostridium perfringens Cp009): 0.25 µg/mL (≈ 0.957 µM) | MIC ([6]; clinical isolate S058, Clostridium perfringens Cp010): 0.25 µg/mL (≈ 0.957 µM) | Ames test bacterial counts ([7]; WP2uvApKM101, +S9, 5.6 μg/plate): 183 ± 15.6 | Ames test bacterial counts ([7]; WP2uvApKM101, +S9, 11.2 μg/plate): 168 ± 19.8 | Ames test bacterial counts ([7]; WP2uvApKM101, +S9, 22.5 μg/plate): 12 ± 5.7 | Ames test bacterial counts ([7]; WP2uvApKM101, +S9, 45 μg/plate): 0 ± 0 | Ames test bacterial counts ([7]; WP2uvApKM101, -S9, 5.6 μg/plate): 169 ± 15.6 | Ames test bacterial counts ([7]; WP2uvApKM101, -S9, 11.2 μg/plate): 135 ± 22.6 | Ames test bacterial counts ([7]; WP2uvApKM101, -S9, 22.5 μg/plate): 75 ± 8.5 | Ames test bacterial counts ([7]; WP2uvApKM101, -S9, 45 μg/plate): 0 ± 0 | teratogenic effects on the embryos [8]: no significant teratogenicity; also recorded: no any significant teratogenic effects | survival of infected mice ([9]; 5 mg/kg halicin): more than 80% | survival of infected mice ([9]; 10 mg/kg halicin): no deaths occurred; also recorded: All mice in the 10 mg/kg halicin group survived | therapeutic effect in infected mice ([9]; dose of 5 mg/kg): good therapeutic effects | efficacy compared with 10 mg/kg metronidazole ([9]; intestinal anaerobic bacteria infection in mice): much more effective | proportions of abnormal sperm compared with the negative control group ([10]; 1009.1, 504.6 and 252.3 mg/kg, p > 0.05): not significantly different | Abnormal sperms counted ratio (%): Amorphous ([10]; High-dose (1009.1) mg/kg): 23.6 ± 12.44% | Abnormal sperms counted ratio (%): Banana shape ([10]; High-dose (1009.1) mg/kg): 42.52 ± 12.57% | Abnormal sperms counted ratio (%): Kinks tail ([10]; High-dose (1009.1) mg/kg): 3.05 ± 2.79% | Abnormal sperms counted ratio (%): Large round head ([10]; High-dose (1009.1) mg/kg): 9.07 ± 4.02% | Abnormal sperms counted ratio (%): No hook ([10]; High-dose (1009.1) mg/kg): 15.6 ± 5.5% | Abnormal sperms counted ratio (%): Two head ([10]; High-dose (1009.1) mg/kg): 3.05 ± 2.79% | Abnormal sperms counted ratio (%): Two tail ([10]; High-dose (1009.1) mg/kg): 3.11 ± 2.84% | Abnormal sperms counted ratio (%): Amorphous ([10]; Low-dose (252.3) mg/kg): 39.81 ± 3% | Abnormal sperms counted ratio (%): Banana shape ([10]; Low-dose (252.3) mg/kg): 35.98 ± 3.94% | Abnormal sperms counted ratio (%): Kinks tail ([10]; Low-dose (252.3) mg/kg): 1.18 ± 2.63% | Abnormal sperms counted ratio (%): Large round head ([10]; Low-dose (252.3) mg/kg): 3.92 ± 3.58% | Abnormal sperms counted ratio (%): No hook ([10]; Low-dose (252.3) mg/kg): 16.61 ± 3.11% | Abnormal sperms counted ratio (%): Two head ([10]; Low-dose (252.3) mg/kg): 1.33 ± 2.98% | Abnormal sperms counted ratio (%): Two tail ([10]; Low-dose (252.3) mg/kg): 1.18 ± 2.63% | Abnormal sperms counted ratio (%): Amorphous ([10]; Medium-dose (504.6) mg/kg): 29.69 ± 2.67% | Abnormal sperms counted ratio (%): Banana shape ([10]; Medium-dose (504.6) mg/kg): 35.81 ± 4.52% | Abnormal sperms counted ratio (%): Kinks tail ([10]; Medium-dose (504.6) mg/kg): 2.44 ± 3.37% | Abnormal sperms counted ratio (%): Large round head ([10]; Medium-dose (504.6) mg/kg): 11.96 ± 0.96% | Abnormal sperms counted ratio (%): No hook ([10]; Medium-dose (504.6) mg/kg): 16.7 ± 2.71% | Abnormal sperms counted ratio (%): Two head ([10]; Medium-dose (504.6) mg/kg): 2.22 ± 3.04% | Abnormal sperms counted ratio (%): Two tail ([10]; Medium-dose (504.6) mg/kg): 1.18 ± 2.63% | Abnormal ratio (%) ([10]; High-dose (1009.1) mg/kg): 2.12 ± 0.38% | Number of sperm abnormality ([10]; High-dose (1009.1) mg/kg): 110 | Abnormal ratio (%) ([10]; Low-dose (252.3) mg/kg): 1.56 ± 0.09% | Number of sperm abnormality ([10]; Low-dose (252.3) mg/kg): 78 | Abnormal ratio (%) ([10]; Medium-dose (504.6) mg/kg): 1.68 ± 0.13% | Number of sperm abnormality ([10]; Medium-dose (504.6) mg/kg): 84 | growth in growth kinetics curve assay [11]: completely inhibited | mortality ([12]; 500 mg/kg oral): none died | survival rate at 7 days ([12]; 1,000 mg/kg oral): 80% | 7-day survival rate ([12]; 4,000 mg/kg oral): 10% | LD50 ([12]; ICR mice, oral gavage, 7 days observation): 2018.3 mg/kg | acute toxicity classification ([12]; based on LD50): low-toxicity compound | MIC of SAR (S. aureus ATCC 29213 resistant strains) [13]: 64 µg/mL
